Laboratory results taken from PubChem BioAssay AID2060889 (Molecular Pharmacology Branch, DTP, NCI, 2025).

Tested on: LG0567-F671-PDC complex spheroids viability
Assay: Anticancer human tumor LG0567-F671-PDC patient-derived lung adenocarcinoma cell line growth inhibition [RAS]
Conditions: for viability, T/C: stronger effect = lower value
Excerpt: RAS pathway inhibitors in Combinations in Complex Spheroids
A high-throughput screen of multi-cell type tumor spheroids was designed to identify active combinations of RAS pathway inhibitors and targeted small molecules. Complex spheroids include a stromal component modeled by human endothelial cells (HUVEC) and fibroblasts modeled by human mesenchymal stem cells (MSCs). The concentration ranges selected for each drug and investigational agent were based upon clinically achievable concentrations if the clinical Cmax of the agent was known.
Compounds. The drugs and investigational agents: abemaciclib (NSC768073), cobimetinib (NSC768068), divarasib (GDC6063, NSC841802), docetaxel (NSC628503), GDC-1971 (RLY-1971, NSC841576), gemcitabine (NSC613327), inavolisib (NSC800729), ipatasertib (NSC767898), KB-0742 (NSC834161), MRTX-1133 (NSC836407), osimertinib (NSC779217), RMC-4630 (NSC839698), RMC-6236 (NSC851965), RMC-6291 (NSC852671), Ro-3306 (NSC812927), sapanisertib (NSC764658), SN-38 (NSC673596), staurosporine (NSC755774), SY5609 (NSC837396), and tovorafenib (DAY101, NSC766906), were obtained from the National Cancer Institute (NCI) Developmental Therapeutics Program Chemical Repository. The FDA-approved anticancer drug set is available from the NCI Developmental Therapeutics Program. […] The stock solutions were prepared in dimethyl sulfoxide (DMSO, Sigma-Aldrich, St. Louis, MO, cat. D2650) at 800-fold the tested concentration and stored at -70 degrees C prior to their use. All drugs and investigational agents were tested over a range starting from a high concentration at or near the clinical Cmax and decreasing in half-log increments. If the clinical Cmax for an agent had not been determined, the highest concentration tested was 10 microM.
Cell Culture. All cells were maintained in an incubator at 37 degrees C and 5% CO2 with 95% humidity. The PDC lines were cultured according to standard operating procedures established by the NCI PDMR. All PDCs were thawed and cultured in Matrigel-coated flasks prepared with a working solution of 1X Ham's F-12 nutrient mix, without supplementation (Invitrogen, Waltham, MA, cat. 11765054), 100 U/mL penicillin-streptomycin (Invitrogen, cat. 15140122), and 2.5% Matrigel (Corning Inc., Corning, NY, cat. 354248) for the first three passages. The 362531-283-R-J2-PDC and 782815-120-R-J1-PDC lines were cultured in 6C/Colon 1B media, which includes advanced DMEM/F-12 (Thermo Fisher Scientific, cat. 12634028), 10 mM HEPES (Thermo Fisher Scientific, cat. 15630080), 1X GlutaMAX supplement (Thermo Fisher Scientific, cat. 35050061), 0.1 mg/mL primocin (InvivoGen, San Diego, CA, cat. ant-pm-2), 10% defined fetal bovine serum, heat inactivated (HyClone Laboratories Inc., Logan, UT, cat. SH30070.03HI), 50% L-WRN conditioned media (ATCC, cat. CRL-3276), 1.25 mM N-Acetyl-L-cysteine (Sigma-Aldrich, cat. A9165), 10 mM nicotinamide (Sigma-Aldrich, cat. N0636), 1X B-27 supplement (Thermo Fisher Scientific, cat. 17504044), 1X N-2 supplement (Thermo Fisher Scientific, cat. 17502048), 50 ng/mL human EGF (Thermo Fisher Scientific, cat. PHG0311), and 10 microM Y-27632 dihydrochloride (Tocris Bioscience, cat. 1254). The K12877-001-R-J1-PDC line was cultured in 6I media, which includes all 6C/Colon 1B media plus 10 ng/mL human FGF-10 (PeproTech, cat. 100-26), 1 ng/mL human FGF-2 (PeproTech, cat. 100-18B), 1 µM prostaglandin E2 (Tocris Bioscience, cat. 2296), […] hydrocortisone (Sigma-Aldrich, cat. H4001), and […] bovine insulin (Sigma-Aldrich, cat. I6634). The K86415-001-R-J1-PDC line was cultured in 6D media, which includes all 6C/Colon 1B media components minus the L-WRN conditioned media. The 485176-168-R4-J1-PDC was cultured in PANC media, which includes all 6C/Colon 1B media plus 100 ng/mL human FGF-10 (PeproTech, cat. 100-26), 500 nM SB-431542 (Selleckchem, cat. S1067), and 10 nM gastrin (Tocris Bioscience, cat. 3006). […]
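Also: spheroids exposed to compound for seven days before readout.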
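For IC50 in this document: luminescence signal used as a proxy for viable cells.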

## NC1c2ccccc2OC12CCN(c1cnc3c(N4CCCc5ncccc54)n[nH]c3n1)CC2 (centres undefined)
Compound 0.0316 µM
  viability, T/C: 37.3% [middle of 4 runs]
Compound 0.1 µM
  viability, T/C: 26.9% [middle of 4 runs]
Compound 0.316 µM
  viability, T/C: 23.4% [middle of 4 runs]
Compound 1 µM
  viability, T/C: 23% [middle of 4 runs]
Compound 3.16 µM
  viability, T/C: 21.2% [middle of 4 runs]
Compound 10 µM
  viability, T/C: 20.4% [middle of 4 runs]
Curve of compound
  IC50: < 0.0316 µM

## CC1(O)CCCC1n1c(=O)c(C(F)F)cc2cnc(NC3CCN(S(C)(=O)=O)CC3)nc21 (centres undefined) + C#Cc1c(F)ccc2cc(O)cc(-c3ncc4c(N5CC6CCC(C5)N6)nc(OCC56CCCN5CC(F)C6)nc4c3F)c12
Curve of first compound, second compound 0.0316 µM
  IC50: 5.85 µM
Curve of first compound, second compound 0.1 µM
  IC50: 6.12 µM
Curve of first compound, second compound 0.316 µM
  IC50: 3.37 µM
Curve of first compound, second compound 1 µM
  IC50: < 0.0316 µM
Curve of first compound, second compound 3.16 µM
  IC50: < 0.0316 µM
Curve of first compound, second compound 10 µM
  IC50: < 0.0316 µM
Second compound 0.0316 µM, first compound 0.0316 µM
  viability, T/C: 85.5%
Second compound 0.0316 µM, first compound 0.1 µM
  viability, T/C: 68.3%
Second compound 0.0316 µM, first compound 0.316 µM
  viability, T/C: 77.8%
Second compound 0.0316 µM, first compound 1 µM
  viability, T/C: 85.4%
Second compound 0.0316 µM, first compound 3.16 µM
  viability, T/C: 78.9%
Second compound 0.0316 µM, first compound 10 µM
  viability, T/C: 24.9%
Second compound 0.1 µM, first compound 0.0316 µM
  viability, T/C: 72.2%
Second compound 0.1 µM, first compound 0.1 µM
  viability, T/C: 59.1%
Second compound 0.1 µM, first compound 0.316 µM
  viability, T/C: 75.2%
Second compound 0.1 µM, first compound 1 µM
  viability, T/C: 81.6%
Second compound 0.1 µM, first compound 3.16 µM
  viability, T/C: 76.9%
Second compound 0.1 µM, first compound 10 µM
  viability, T/C: 33.1%
Second compound 0.316 µM, first compound 0.0316 µM
  viability, T/C: 56.1%
Second compound 0.316 µM, first compound 0.1 µM
  viability, T/C: 56.2%
Second compound 0.316 µM, first compound 0.316 µM
  viability, T/C: 62.7%
Second compound 0.316 µM, first compound 1 µM
  viability, T/C: 54.5%
Second compound 0.316 µM, first compound 3.16 µM
  viability, T/C: 71.1%
Second compound 0.316 µM, first compound 10 µM
  viability, T/C: 27.5%
Second compound 1 µM, first compound 0.0316 µM
  viability, T/C: 33.1%
Second compound 1 µM, first compound 0.1 µM
  viability, T/C: 36.8%
Second compound 1 µM, first compound 0.316 µM
  viability, T/C: 45.6%
Second compound 1 µM, first compound 1 µM
  viability, T/C: 40%
Second compound 1 µM, first compound 3.16 µM
  viability, T/C: 40.6%
Second compound 1 µM, first compound 10 µM
  viability, T/C: 18.3%
Second compound 3.16 µM, first compound 0.0316 µM
  viability, T/C: 17.3%
Second compound 3.16 µM, first compound 0.1 µM
  viability, T/C: 23.6%
Second compound 3.16 µM, first compound 0.316 µM
  viability, T/C: 25.2%
Second compound 3.16 µM, first compound 1 µM
  viability, T/C: 29.3%
Second compound 3.16 µM, first compound 3.16 µM
  viability, T/C: 23.3%
Second compound 3.16 µM, first compound 10 µM
  viability, T/C: 14.6%
Second compound 10 µM, first compound 0.0316 µM
  viability, T/C: 14.2%
Second compound 10 µM, first compound 0.1 µM
  viability, T/C: 15.3%
Second compound 10 µM, first compound 0.316 µM
  viability, T/C: 17.8%
Second compound 10 µM, first compound 1 µM
  viability, T/C: 18.5%
Second compound 10 µM, first compound 3.16 µM
  viability, T/C: 14.7%
Second compound 10 µM, first compound 10 µM
  viability, T/C: 8.46%
